# Values quoted from earlier work, collected in patent US20230067378A1, “COMPOSITIONS AND METHODS FOR THE TREATMENT OF ESTROGEN-DEPENDENT DISORDERS” (ObsEva S.A., priority 2018, published 2023).
# Conditions: in vivo; cited from earlier work
row,Compound,half-life [h]
1,"COc1cccc(-c2c(C)n(Cc3c(F)cccc3C(F)(F)F)c(=O)n(C[C@H](NCCCC(=O)O)c3ccccc3)c2=O)c1F [Elagolix, sodium 4-({(1R)-2-[5-(2-fluoro-3-methoxyphenyl)-3-{[2-fluoro-6-(trifluoromethyl)phenyl]methyl}-4-methyl-2,6-dioxo-3,6-dihydropyrimidin-1(2H)-yl]-1-phenylethyl}amino)butanoate]",2 to 6
2,"CONC(=O)Nc1ccc(-c2sc3c(c2CN(C)C)c(=O)n(-c2ccc(OC)nn2)c(=O)n3Cc2c(F)cccc2F)cc1 [relugolix, N-(4-(1-(2,6-difluorobenzyl)-5-((dimethylamino)methyl)-3-(6-methoxy-3-pyridazinyl)-2,4-dioxo-1,2,3,4-tetrahydrothieno[2,3-d]pyrimidin-6-yl)phenyl)-N′-methoxyurea]",37 to 42
